“And” between values parts separate entries of the source, which are not always exact repeats. Equal values may be shown once. Toxic doses and inconclusive results are not listed. Cut-off read from the data, not from the text of the source: active = T/C of 150% or more; inactive = T/C below 125%.
System: L1210 leukemia ip in BDF1 mice, survival T/C
Experiment: NCI In Vivo Anticancer Drug Screen. Data for tumor model L1210 Leukemia (intraperitoneal) in B6D2F1 (BDF1) mice
Conditions: endpoint: mean survival time, higher = longer survival
Method in brief: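 Transplanted-tumor mice were given test agent; controls received vehicle only. Survival readings from the two groups were divided (treated over control).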

[1] = dose: 100.0 mg/kg/injection, schedule: Q01DX001 (ip), vehicle: Klucel (hydroxypropylcellulose) (HPC)
[2] = dose: 200.0 mg/kg/injection, schedule: Q01DX001 (ip), vehicle: Klucel (hydroxypropylcellulose) (HPC)
[3] = dose: 100.0 mg/kg/injection, schedule: Q04DX002 (ip), vehicle: saline with Tween-80
[4] = dose: 200.0 mg/kg/injection, schedule: Q04DX002 (ip), vehicle: saline with Tween-80
[5] = dose: 100.0 mg/kg/injection, schedule: Q01DX009 (ip), vehicle: Klucel (hydroxypropylcellulose) (HPC)
[6] = dose: 200.0 mg/kg/injection, schedule: Q01DX009 (ip), vehicle: Klucel (hydroxypropylcellulose) (HPC)
[7] = dose: 400.0 mg/kg/injection, schedule: Q01DX009 (ip), vehicle: Klucel (hydroxypropylcellulose) (HPC)
[8] = dose: 100.0 mg/kg/injection, schedule: Q04DX003 (ip), vehicle: Klucel (hydroxypropylcellulose) (HPC)
[9] = dose: 100.0 mg/kg/injection, schedule: Q01DX001 (ip), vehicle: saline with Tween-80
[10] = dose: 50.0 mg/kg/injection, schedule: Q01DX009 (ip), vehicle: Klucel (hydroxypropylcellulose) (HPC)
[11] = dose: 200.0 mg/kg/injection, schedule: Q04DX003 (ip), vehicle: Klucel (hydroxypropylcellulose) (HPC)
[12] = dose: 25.0 mg/kg/injection, schedule: Q04DX002 (ip), vehicle: Klucel (hydroxypropylcellulose) (HPC)
[13] = dose: 50.0 mg/kg/injection, schedule: Q04DX002 (ip), vehicle: Klucel (hydroxypropylcellulose) (HPC)
[14] = dose: 100.0 mg/kg/injection, schedule: Q04DX002 (ip), vehicle: Klucel (hydroxypropylcellulose) (HPC)

Measured: T/C

C[N+]1(C)C2C=CCC1CSC2 (stereo not given)
inactive: dose: 15.0 mg/kg/injection, schedule: Q01DX001 (ip), vehicle: saline 110 % of control

Cc1cc(=O)[nH]c(C(F)(F)F)n1
inactive: dose: 44.0 mg/kg/injection, schedule: Q01DX Z (ip), vehicle: methylcellulose (MC) 93 % of control | dose: 66.0 mg/kg/injection, schedule: Q01DX Z (ip), vehicle: methylcellulose (MC) 107 % of control | dose: 100.0 mg/kg/injection, schedule: Q01DX Z (ip), vehicle: methylcellulose (MC) 102 % of control

CC1=CC(=O)C=CC1=Nc1cc(Cl)c(O)c(Cl)c1
inactive: dose: 50.0 mg/kg/injection, schedule: Q01DX001 (ip), vehicle: saline 101 % of control | dose: 100.0 mg/kg/injection, schedule: Q01DX001 (ip), vehicle: saline 95 % of control

CC(=O)N1CCc2nc3ccccc3cc21
inactive: dose: 37.5 mg/kg/injection, schedule: Q01DX009 (ip), vehicle: saline with Tween-80 96 % of control | dose: 37.5 mg/kg/injection, schedule: Q04DX003 (ip), vehicle: saline 104 % of control | dose: 75.0 mg/kg/injection, schedule: Q01DX001 (ip), vehicle: saline 95 % of control | dose: 75.0 mg/kg/injection, schedule: Q01DX009 (ip), vehicle: saline with Tween-80 94 % of control | dose: 75.0 mg/kg/injection, schedule: Q04DX003 (ip), vehicle: saline 104 % of control | dose: 150.0 mg/kg/injection, schedule: Q01DX001 (ip), vehicle: saline 101 % of control | dose: 150.0 mg/kg/injection, schedule: Q01DX009 (ip), vehicle: saline with Tween-80 88 % of control | dose: 150.0 mg/kg/injection, schedule: Q04DX003 (ip), vehicle: saline 106 % of control

CCCCCc1ccccc1
inactive: dose: 200.0 mg/kg/injection, schedule: Q01DX Z (ip), vehicle: carboxymethylcellulose (CMC) 103 % of control | dose: 400.0 mg/kg/injection, schedule: Q01DX Z (ip), vehicle: carboxymethylcellulose (CMC) 108 % of control | dose: 800.0 mg/kg/injection, schedule: Q01DX Z (ip), vehicle: carboxymethylcellulose (CMC) 91 % of control

CCCCCOc1ccc(Nc2c3ccccc3nc3ccccc23)cc1
inactive: [1] 102 % of control | [2] 111 % of control | dose: 400.0 mg/kg/injection, schedule: Q01DX001 (ip), vehicle: Klucel (hydroxypropylcellulose) (HPC) 107 % of control

CC1CCCCN1P(N1CCCCC1C)N1CCCCC1C (stereo not given)
inactive: [3] 98 % of control | [4] 98 % of control

CC(=O)Nc1ccc(NC(=O)Nc2cc([N+](=O)[O-])ccc2C)cc1
inactive: [5] 95 % of control | [6] 93 % of control | [7] 96 % of control

Nc1c[nH]c(=S)s1
inactive: [1] 94 % of control | [2] 99 % of control

CC(C)(C)C1COP(=S)(c2ccccc2)OC1 (stereo not given)
inactive: [8] 96 % of control

Nc1ncnc2nc(-c3cccc(CNC(=O)c4ccccc4S(=O)(=O)F)c3)[nH]c12
inactive: dose: 25.0 mg/kg/injection, schedule: Q01DX001 (ip), vehicle: saline with Tween-80 93 % of control | dose: 50.0 mg/kg/injection, schedule: Q01DX001 (ip), vehicle: saline with Tween-80 88 % of control | [9] 87 % of control

CC1([N+](=O)[O-])COP(=O)(Nc2cccc(Cl)c2)OC1 (stereo not given)
inactive: dose: 100.0 mg/kg/injection, schedule: Q01DX001 (ip), vehicle: carboxymethylcellulose (CMC) 95 % of control | dose: 200.0 mg/kg/injection, schedule: Q01DX001 (ip), vehicle: carboxymethylcellulose (CMC) 95 % of control | dose: 400.0 mg/kg/injection, schedule: Q01DX001 (ip), vehicle: carboxymethylcellulose (CMC) 101 % of control

CCCCC1CN2CCc3cc(OC)c(OC)cc3C2CC1=O (stereo not given)
inactive: [10] 96 % of control and 97 % of control | [5] 89 % of control and 103 % of control | [6] 94 % of control and 96 % of control | [7] 97 % of control

C1=Nc2ccccc2/C1=C/C=C/c1ccccc1
inactive: dose: 100.0 mg/kg/injection, schedule: Q04DX002 (ip), vehicle: gum acacia 88 % of control | dose: 200.0 mg/kg/injection, schedule: Q04DX002 (ip), vehicle: gum acacia 95 % of control | dose: 400.0 mg/kg/injection, schedule: Q04DX002 (ip), vehicle: gum acacia 95 % of control

CC(C)=C(Br)c1c(C)cc(C)c(Nc2ccc([N+](=O)[O-])cc2)c1C
inactive: dose: 100.0 mg/kg/injection, schedule: Q04DX003 (ip), vehicle: saline 94 % of control | dose: 200.0 mg/kg/injection, schedule: Q04DX003 (ip), vehicle: saline 91 % of control | dose: 400.0 mg/kg/injection, schedule: Q04DX003 (ip), vehicle: saline 91 % of control

COC(=O)c1cc(C)c(Br)c(OC)c1
inactive: [5] 98 % of control | [8] 94 % of control | [6] 100 % of control | [11] 111 % of control | dose: 400.0 mg/kg/injection, schedule: Q04DX003 (ip), vehicle: Klucel (hydroxypropylcellulose) (HPC) 100 % of control

CCOC(=O)NCS(=O)(=O)c1ccccc1-c1ccccc1
inactive: [8] 93 % of control | [11] 104 % of control

CCCOCCOCCOC(C)Oc1ccccc1OC (stereo not given)
inactive: dose: 100.0 mg/kg/injection, schedule: Q04DX002 (ip), vehicle: saline 92 % of control | dose: 200.0 mg/kg/injection, schedule: Q04DX002 (ip), vehicle: saline 88 % of control | dose: 400.0 mg/kg/injection, schedule: Q04DX002 (ip), vehicle: saline 95 % of control

O=C(Nc1ccc(I)cc1)Nc1ccc(Cl)cc1[N+](=O)[O-]
inactive: [9] 96 % of control | dose: 100.0 mg/kg/injection, schedule: Q01DX009 (ip), vehicle: saline with Tween-80 97 % of control and 92 % of control | [3] 98 % of control and 91 % of control | dose: 100.0 mg/kg/injection, schedule: Q04DX003 (ip), vehicle: saline with Tween-80 93 % of control | dose: 200.0 mg/kg/injection, schedule: Q01DX001 (ip), vehicle: saline with Tween-80 90 % of control | dose: 200.0 mg/kg/injection, schedule: Q01DX009 (ip), vehicle: saline with Tween-80 87 % of control | [4] 94 % of control and 98 % of control | dose: 200.0 mg/kg/injection, schedule: Q04DX003 (ip), vehicle: saline with Tween-80 97 % of control | dose: 400.0 mg/kg/injection, schedule: Q01DX001 (ip), vehicle: saline with Tween-80 87 % of control | dose: 400.0 mg/kg/injection, schedule: Q04DX002 (ip), vehicle: saline with Tween-80 93 % of control and 91 % of control | dose: 400.0 mg/kg/injection, schedule: Q04DX003 (ip), vehicle: saline with Tween-80 95 % of control

CCOc1ccccc1/C=C1\C=Nc2ccccc21
inactive: dose: 50.0 mg/kg/injection, schedule: Q01DX009 (ip), vehicle: carboxymethylcellulose (CMC) 92 % of control and 101 % of control | dose: 50.0 mg/kg/injection, schedule: Q04DX003 (ip), vehicle: carboxymethylcellulose (CMC) 96 % of control | dose: 100.0 mg/kg/injection, schedule: Q01DX009 (ip), vehicle: carboxymethylcellulose (CMC) 92 % of control and 93 % of control | dose: 100.0 mg/kg/injection, schedule: Q04DX002 (ip), vehicle: carboxymethylcellulose (CMC) 96 % of control and 99 % of control | dose: 100.0 mg/kg/injection, schedule: Q04DX003 (ip), vehicle: carboxymethylcellulose (CMC) 98 % of control | dose: 200.0 mg/kg/injection, schedule: Q01DX009 (ip), vehicle: carboxymethylcellulose (CMC) 89 % of control and 90 % of control | dose: 200.0 mg/kg/injection, schedule: Q04DX002 (ip), vehicle: carboxymethylcellulose (CMC) 89 % of control and 91 % of control | dose: 200.0 mg/kg/injection, schedule: Q04DX003 (ip), vehicle: carboxymethylcellulose (CMC) 100 % of control | dose: 400.0 mg/kg/injection, schedule: Q04DX002 (ip), vehicle: carboxymethylcellulose (CMC) 89 % of control

COc1ccc(-c2cc3c(OC)ccc(OC)c3[nH]2)cc1OC
inactive: [12] 96 % of control | [13] 96 % of control and 99 % of control | [14] 91 % of control | dose: 200.0 mg/kg/injection, schedule: Q04DX002 (ip), vehicle: Klucel (hydroxypropylcellulose) (HPC) 93 % of control

COC1OC(COC(c2ccccc2)(c2ccccc2)c2ccccc2)C(OC(=S)SCc2ccccc2)C(OC)C1OC (stereo not given)
inactive: [12] 108 % of control | [13] 104 % of control | [14] 104 % of control

CN(C)c1ccc(/C=C\c2cc(=O)[nH]c3ccccc23)cc1
inactive: [10] 100 % of control | [5] 102 % of control | [6] 97 % of control | [7] 97 % of control

— PubChem BioAssay AID248 (DTP/NCI, 2004)
